Tests used:
Experiment in all cases: relative viability (nuclei count vs DMSO), 5 days (fraction); higher = more cells survive
BEN = tested on: BEN
Summary of the method: (§1)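 Five library-drug doses in √10 steps were combined with a fixed anchor-drug dose, or a single drug was given alone, by pin tool to lung cancer cell lines in 1536-well plates the day after seeding. Nuclei were stained and counted after 5 days. Relative viability is the nuclei count in treated wells over that in vehicle wells, taken as the median of duplicate plates.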

RERF-LC-KJ = tested on: RERF-LC-KJ
Summary of the method: as §1

NCI-H1975 = tested on: NCI-H1975
Summary of the method: as §1

NCI-H1993 = tested on: NCI-H1993
Summary of the method: as §1

201T = tested on: 201T
Summary of the method: as §1

SK-LU-1 = tested on: SK-LU-1
Summary of the method: as §1

NCI-H1734 = tested on: NCI-H1734
Summary of the method: as §1

NCI-H596 = tested on: NCI-H596
Summary of the method: as §1

NCI-H1650 = tested on: NCI-H1650
Summary of the method: as §1

EKVX = tested on: EKVX
Summary of the method: as §1

LC-2-ad = tested on: LC-2-ad
Summary of the method: as §1

HCC-15 = tested on: HCC-15
Summary of the method: as §1

NCI-H3122 = tested on: NCI-H3122
Summary of the method: as §1

LU99A = tested on: LU99A
Summary of the method: as §1

NCI-H1755 = tested on: NCI-H1755
Summary of the method: as §1

HCC-366 = tested on: HCC-366
Summary of the method: as §1

HARA = tested on: HARA
Summary of the method: as §1

LXF-289 = tested on: LXF-289
Summary of the method: as §1

NCI-H1944 = tested on: NCI-H1944
Summary of the method: as §1

COR-L 105 = tested on: COR-L 105
Summary of the method: as §1

HCC-827 = tested on: HCC-827
Summary of the method: as §1

COR-L23 = tested on: COR-L23
Summary of the method: as §1

HCC-78 = tested on: HCC-78
Summary of the method: as §1

Compound `O=c1[nH]c2ccccc2n1C1CCN(CCCC(c2ccc(F)cc2)c2ccc(F)cc2)CC1` [Pimozide] + O=C(CCCCCCC(=O)Nc1ccccc1)NO [Vorinostat] (partner 1 µM) has a relative viability (BEN; first compound 0.08 µM) of 0.558, a relative viability (BEN; first compound 0.253 µM) of 0.579 and a relative viability (BEN; first compound 0.8 µM) of 0.607. It also gave a relative viability (BEN; first compound 2.53 µM) of 0.601, a relative viability (BEN; first compound 8 µM) of 0.603 and a relative viability (RERF-LC-KJ; first compound 0.08 µM) of 0.616. For the same compound, the relative viability (RERF-LC-KJ; first compound 0.253 µM) was 0.677, the relative viability (RERF-LC-KJ; first compound 0.8 µM) was 0.612 and the relative viability (RERF-LC-KJ; first compound 2.53 µM) was 0.463. The relative viability (RERF-LC-KJ; first compound 8 µM) was 0.613, the relative viability (NCI-H1975; first compound 0.08 µM) was 0.746 and the relative viability (NCI-H1975; first compound 0.253 µM) was 0.676. The relative viability (NCI-H1975; first compound 0.8 µM) was 0.672, the relative viability (NCI-H1975; first compound 2.53 µM) was 0.696 and the relative viability (NCI-H1975; first compound 8 µM) was 0.563. It also gave a relative viability (NCI-H1993; first compound 0.08 µM) of 0.502, a relative viability (NCI-H1993; first compound 0.253 µM) of 0.966 and a relative viability (NCI-H1993; first compound 0.8 µM) of 0.68. For the same compound, the relative viability (NCI-H1993; first compound 2.53 µM) was 0.857, the relative viability (NCI-H1993; first compound 8 µM) was 0.533 and the relative viability (201T; first compound 0.08 µM) was 0.881. It also gave a relative viability (201T; first compound 0.253 µM) of 0.964, a relative viability (201T; first compound 0.8 µM) of 0.863 and a relative viability (201T; first compound 2.53 µM) of 0.942. It also gave a relative viability (201T; first compound 8 µM) of 0.72, a relative viability (SK-LU-1; first compound 0.08 µM) of 0.785 and a relative viability (SK-LU-1; first compound 0.253 µM) of 0.72. For the same compound, the relative viability (SK-LU-1; first compound 0.8 µM) was 0.501, the relative viability (SK-LU-1; first compound 2.53 µM) was 0.724 and the relative viability (SK-LU-1; first compound 8 µM) was 0.617. The relative viability (NCI-H1734; first compound 0.08 µM) was 0.841, the relative viability (NCI-H1734; first compound 0.253 µM) was 0.739 and the relative viability (NCI-H1734; first compound 0.8 µM) was 0.569. It also gave a relative viability (NCI-H1734; first compound 2.53 µM) of 0.763, a relative viability (NCI-H1734; first compound 8 µM) of 0.847 and a relative viability (NCI-H596; first compound 0.08 µM) of 0.702. The relative viability (NCI-H596; first compound 0.253 µM) was 0.598, the relative viability (NCI-H596; first compound 0.8 µM) was 0.467 and the relative viability (NCI-H596; first compound 2.53 µM) was 0.583. It also gave a relative viability (NCI-H596; first compound 8 µM) of 0.549, a relative viability (NCI-H1650; first compound 0.08 µM) of 0.449 and a relative viability (NCI-H1650; first compound 0.253 µM) of 0.571. The relative viability (NCI-H1650; first compound 0.8 µM) was 0.687, the relative viability (NCI-H1650; first compound 2.53 µM) was 0.591 and the relative viability (NCI-H1650; first compound 8 µM) was 0.546. The relative viability (EKVX; first compound 0.253 µM) was 0.712, the relative viability (EKVX; first compound 0.8 µM) was 0.601 and the relative viability (EKVX; first compound 2.53 µM) was 0.812. It also gave a relative viability (EKVX; first compound 8 µM) of 0.641, a relative viability (LC-2-ad; first compound 0.08 µM) of 0.731 and a relative viability (LC-2-ad; first compound 0.253 µM) of 0.661. It also gave a relative viability (LC-2-ad; first compound 0.8 µM) of 0.499, a relative viability (LC-2-ad; first compound 2.53 µM) of 0.653 and a relative viability (LC-2-ad; first compound 8 µM) of 0.655. For the same compound, the relative viability (HCC-15; first compound 0.08 µM) was 0.828, the relative viability (HCC-15; first compound 0.253 µM) was 0.746 and the relative viability (HCC-15; first compound 0.8 µM) was 0.83. The relative viability (HCC-15; first compound 2.53 µM) was 0.788, the relative viability (HCC-15; first compound 8 µM) was 0.703 and the relative viability (NCI-H3122; first compound 0.08 µM) was 0.924. The relative viability (NCI-H3122; first compound 0.253 µM) was 0.951, the relative viability (NCI-H3122; first compound 0.8 µM) was 0.81 and the relative viability (NCI-H3122; first compound 2.53 µM) was 0.724. The relative viability (NCI-H3122; first compound 8 µM) was 0.847, the relative viability (LU99A; first compound 0.08 µM) was 0.595 and the relative viability (LU99A; first compound 0.8 µM) was 0.418. The relative viability (LU99A; first compound 2.53 µM) was 0.5, the relative viability (LU99A; first compound 8 µM) was 0.537 and the relative viability (NCI-H1755; first compound 0.08 µM) was 0.886. It also gave a relative viability (NCI-H1755; first compound 0.253 µM) of 0.668, a relative viability (NCI-H1755; first compound 0.8 µM) of 0.721 and a relative viability (NCI-H1755; first compound 2.53 µM) of 0.738. For the same compound, the relative viability (NCI-H1755; first compound 8 µM) was 0.682, the relative viability (HCC-366; first compound 0.08 µM) was 0.457 and the relative viability (HCC-366; first compound 0.253 µM) was 0.334. It also gave a relative viability (HCC-366; first compound 0.8 µM) of 0.142, a relative viability (HCC-366; first compound 2.53 µM) of 0.29 and a relative viability (HCC-366; first compound 8 µM) of 0.309. For the same compound, the relative viability (HARA; first compound 0.08 µM) was 0.433, the relative viability (HARA; first compound 0.253 µM) was 0.477 and the relative viability (HARA; first compound 0.8 µM) was 0.519. It also gave a relative viability (HARA; first compound 2.53 µM) of 0.484, a relative viability (HARA; first compound 8 µM) of 0.399 and a relative viability (LXF-289; first compound 0.08 µM) of 0.796. It also gave a relative viability (LXF-289; first compound 0.253 µM) of 0.748, a relative viability (LXF-289; first compound 0.8 µM) of 0.718 and a relative viability (LXF-289; first compound 2.53 µM) of 0.88. It also gave a relative viability (LXF-289; first compound 8 µM) of 0.755, a relative viability (NCI-H1944; first compound 0.08 µM) of 0.563 and a relative viability (NCI-H1944; first compound 2.53 µM) of 0.636. The relative viability (NCI-H1944; first compound 8 µM) was 0.47, the relative viability (COR-L 105; first compound 0.08 µM) was 0.702 and the relative viability (COR-L 105; first compound 0.253 µM) was 0.767. For the same compound, the relative viability (COR-L 105; first compound 0.8 µM) was 0.821, the relative viability (COR-L 105; first compound 2.53 µM) was 0.833 and the relative viability (COR-L 105; first compound 8 µM) was 0.751. For the same compound, the relative viability (HCC-827; first compound 0.253 µM) was 0.791, the relative viability (HCC-827; first compound 0.8 µM) was 0.738 and the relative viability (HCC-827; first compound 2.53 µM) was 0.785. It also gave a relative viability (HCC-827; first compound 8 µM) of 0.843, a relative viability (COR-L23; first compound 0.08 µM) of 0.459 and a relative viability (COR-L23; first compound 0.253 µM) of 0.414. The relative viability (COR-L23; first compound 0.8 µM) was 0.343, the relative viability (COR-L23; first compound 2.53 µM) was 0.432 and the relative viability (COR-L23; first compound 8 µM) was 0.495. For the same compound, the relative viability (HCC-78; first compound 0.08 µM) was 0.371, the relative viability (HCC-78; first compound 0.8 µM) was 0.369 and the relative viability (HCC-78; first compound 2.53 µM) was 0.453. The relative viability (HCC-78; first compound 8 µM) was 0.447.

Reference: the supplement of paper PMC10307832
